# Patent US20060069132A1, “Azolecarboxamide herbicides” (priority 2004, published 2006)
# How the values were obtained:
# barnyardgrass = test: Test B pre-/postemergence herbicide test; format: in vivo, Echinochloa crus-galli; details: for Plant response rating, Barnyardgrass: preemergence; for Barnyardgrass plant response rating: postemergence, visual rating, scale 0 (no effect) to 100 (complete control)
# Outline: (§1)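 Test chemicals in a non-phytotoxic solvent mixture with surfactant were applied preemergence to seeded species and postemergence to plants 2-18 cm tall (1- to 4-leaf stage); rice and barnyardgrass were also tested in a flooded paddy at the 2-leaf stage. Visual rating versus controls after 13-15 days in greenhouse, scale 0 (no effect) to 100 (complete control).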
# Surinam grass = test: Test B pre-/postemergence herbicide test; format: in vivo, Urochloa decumbens; details: for Plant response rating, Surinam Grass: preemergence; for Surinam Grass plant response rating: postemergence, visual rating, scale 0 (no effect) to 100 (complete control)
# Outline: (§2)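 Flooded paddy rice and barnyardgrass were treated at the 2-leaf stage; upland plantings received compound either on sown seed or on 1- to 4-leaf seedlings. All were kept 13–15 days in a greenhouse and scored visually, 0–100, relative to untreated plants.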
# cocklebur = test: Test B pre-/postemergence herbicide test; format: in vivo, Xanthium strumarium; details: for Plant response rating, Cocklebur: preemergence; for Cocklebur plant response rating: postemergence, visual rating, scale 0 (no effect) to 100 (complete control)
# Outline: as §1
# corn = test: Test B pre-/postemergence herbicide test; format: in vivo, Zea mays; details: for Plant response rating, Corn: preemergence; for Corn plant response rating: postemergence, visual rating, scale 0 (no effect) to 100 (complete control)
# Outline: as §2
# large crabgrass = test: Test B pre-/postemergence herbicide test; format: in vivo, Digitaria sanguinalis; details: for Plant response rating, Crabgrass, Large: preemergence; for Crabgrass, Large plant response rating: postemergence, visual rating, scale 0 (no effect) to 100 (complete control)
# Outline: as §2
# giant foxtail = test: Test B pre-/postemergence herbicide test; format: in vivo, Setaria faberi; details: for Plant response rating, Foxtail, Giant: preemergence; for Foxtail, Giant plant response rating: postemergence, visual rating, scale 0 (no effect) to 100 (complete control)
# Outline: as §2
# lambsquarters = test: Test B pre-/postemergence herbicide test; format: in vivo, Chenopodium album; details: for Plant response rating, Lambsquarters: preemergence; for Lambsquarters plant response rating: postemergence, visual rating, scale 0 (no effect) to 100 (complete control)
# Outline: as §2
# morningglory = test: Test B pre-/postemergence herbicide test; format: in vivo, Ipomoea coccinea; details: for Plant response rating, Morningglory: preemergence; for Morningglory plant response rating: postemergence, visual rating, scale 0 (no effect) to 100 (complete control)
# Outline: as §1
# pigweed = test: Test B pre-/postemergence herbicide test; format: in vivo, Amaranthus retroflexus; details: for Plant response rating, Pigweed: preemergence; for Pigweed plant response rating: postemergence, visual rating, scale 0 (no effect) to 100 (complete control)
# Outline: as §2
# velvetleaf = test: Test B pre-/postemergence herbicide test; format: in vivo, Abutilon theophrasti; details: for Plant response rating, Velvetleaf: preemergence; for Velvetleaf plant response rating: postemergence, visual rating, scale 0 (no effect) to 100 (complete control)
# Outline: as §2
# blackgrass = test: Test B postemergence herbicide test; format: in vivo, Alopecurus myosuroides; details: postemergence, visual rating, scale 0 (no effect) to 100 (complete control)
# Outline: (§3)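 Paddy species grown to the 2-leaf stage under flooding; blackgrass sprayed postemergence at 2–18 cm (1- to 4-leaf stage). Plants kept in a greenhouse for 13 to 15 days, then visually rated against controls on 0 (no effect) to 100 (complete control).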
# wild oat = test: Test B postemergence herbicide test; format: in vivo, Avena fatua; details: postemergence, visual rating, scale 0 (no effect) to 100 (complete control)
# Outline: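 Greenhouse test; postemergence application to plants at 1–4 leaves (2–18 cm); paddy species at 2 leaves; evaluated visually vs controls at 13–15 days; scale 0–100 (100 = complete control).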
# rice = test: Test B flooded paddy test; format: in vivo, Oryza sativa; details: 1000 g ai/ha, visual rating, scale 0 to 100 (0 no effect, 100 complete control), 13 to 15 days
# Outline: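 After treating 2-leaf paddy plants or 2–18 cm postemergence plants (1 to 4 leaves) with formulated chemical, researchers kept them in a greenhouse for 13–15 days. Effects were judged visually versus controls: 0 indicates none, 100 total control.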
# [1] = test system: small flower umbrella sedge; test: Test B flooded paddy test; format: in vivo, Cyperus difformis; details: 1000 g ai/ha, visual rating, scale 0 to 100 (0 no effect, 100 complete control), 13 to 15 days
# Outline: as §3
# ducksalad = test: Test B flooded paddy test; format: in vivo, Heteranthera limosa; details: 1000 g ai/ha, visual rating, scale 0 to 100 (0 no effect, 100 complete control), 13 to 15 days
# Outline: as §3
# [2] = 500 g ai/ha, visual rating 0-100, 0 no effect, 100 complete control
# [3] = 125 g ai/ha, 0 to 100 scale, 0 is no effect, 100 is complete control
structure (smiles),measurement,setting,value
CCNC(=O)c1cccc(NC(=O)c2cc(C(C)(C)C)nn2CC)n1 [Compound 144],"Plant response rating, Barnyardgrass",barnyardgrass; [2],100
same,Barnyardgrass plant response rating,barnyardgrass; 125 g ai/ha,70
same,Barnyardgrass plant response rating,barnyardgrass; 500 g ai/ha,80
same,"Plant response rating, Barnyardgrass",barnyardgrass; [3],90
same,"Plant response rating, Surinam Grass",Surinam grass; [2],100
same,Surinam Grass plant response rating,Surinam grass; 125 g ai/ha,60
same,Surinam Grass plant response rating,Surinam grass; 500 g ai/ha,90
same,"Plant response rating, Surinam Grass",Surinam grass; [3],60
same,"Plant response rating, Cocklebur",cocklebur; [2],20
same,Cocklebur plant response rating,cocklebur; 125 g ai/ha,30
same,Cocklebur plant response rating,cocklebur; 500 g ai/ha,100
same,"Plant response rating, Cocklebur",cocklebur; [3],10
same,"Plant response rating, Corn",corn; [2],10
same,Corn plant response rating,corn; 125 g ai/ha,20
same,Corn plant response rating,corn; 500 g ai/ha,30
same,"Plant response rating, Corn",corn; [3],10
same,"Plant response rating, Crabgrass, Large",large crabgrass; [2],100
same,"Crabgrass, Large plant response rating",large crabgrass; 125 g ai/ha,30
same,"Crabgrass, Large plant response rating",large crabgrass; 500 g ai/ha,100
same,"Plant response rating, Crabgrass, Large",large crabgrass; [3],80
same,"Plant response rating, Foxtail, Giant",giant foxtail; [2],100
same,"Foxtail, Giant plant response rating",giant foxtail; 125 g ai/ha,40
same,"Foxtail, Giant plant response rating",giant foxtail; 500 g ai/ha,90
same,"Plant response rating, Foxtail, Giant",giant foxtail; [3],100
same,"Plant response rating, Lambsquarters",lambsquarters; [2],100
same,Lambsquarters plant response rating,lambsquarters; 125 g ai/ha,90
same,Lambsquarters plant response rating,lambsquarters; 500 g ai/ha,90
same,"Plant response rating, Lambsquarters",lambsquarters; [3],100
same,"Plant response rating, Morningglory",morningglory; [2],100
same,Morningglory plant response rating,morningglory; 125 g ai/ha,50
same,Morningglory plant response rating,morningglory; 500 g ai/ha,80
same,"Plant response rating, Morningglory",morningglory; [3],100
same,"Plant response rating, Pigweed",pigweed; [2],100
same,Pigweed plant response rating,pigweed; 125 g ai/ha,100
same,Pigweed plant response rating,pigweed; 500 g ai/ha,100
same,"Plant response rating, Pigweed",pigweed; [3],100
same,"Plant response rating, Velvetleaf",velvetleaf; [2],100
same,Velvetleaf plant response rating,velvetleaf; 125 g ai/ha,80
same,Velvetleaf plant response rating,velvetleaf; 500 g ai/ha,100
same,"Plant response rating, Velvetleaf",velvetleaf; [3],100
same,Blackgrass plant response rating,blackgrass; 125 g ai/ha,20
same,Blackgrass plant response rating,blackgrass; 500 g ai/ha,60
same,"Oat, Wild plant response rating",wild oat; 125 g ai/ha,20
same,"Oat, Wild plant response rating",wild oat; 500 g ai/ha,50
same,Rice plant response rating,rice,70
same,"Sedge, Umbrella plant response rating",[1],90
same,Ducksalad plant response rating,ducksalad,90
C#CCNC(=O)c1cccc(NC(=O)c2cc(C(C)(C)C)nn2CC)n1 [Compound 147],"Plant response rating, Barnyardgrass",barnyardgrass; [2],90
same,Barnyardgrass plant response rating,barnyardgrass; 125 g ai/ha,20
same,Barnyardgrass plant response rating,barnyardgrass; 500 g ai/ha,30
same,"Plant response rating, Barnyardgrass",barnyardgrass; [3],70
same,"Plant response rating, Surinam Grass",Surinam grass; [2],80
same,Surinam Grass plant response rating,Surinam grass; 125 g ai/ha,20
same,Surinam Grass plant response rating,Surinam grass; 500 g ai/ha,30
same,"Plant response rating, Surinam Grass",Surinam grass; [3],20
same,"Plant response rating, Cocklebur",cocklebur; [2],10
same,Cocklebur plant response rating,cocklebur; 125 g ai/ha,0
same,Cocklebur plant response rating,cocklebur; 500 g ai/ha,80
same,"Plant response rating, Cocklebur",cocklebur; [3],0
same,"Plant response rating, Corn",corn; [2],10
same,Corn plant response rating,corn; 125 g ai/ha,10
same,Corn plant response rating,corn; 500 g ai/ha,30
same,"Plant response rating, Corn",corn; [3],10
same,"Plant response rating, Crabgrass, Large",large crabgrass; [2],100
same,"Crabgrass, Large plant response rating",large crabgrass; 125 g ai/ha,20
same,"Crabgrass, Large plant response rating",large crabgrass; 500 g ai/ha,70
same,"Plant response rating, Crabgrass, Large",large crabgrass; [3],90
same,"Plant response rating, Foxtail, Giant",giant foxtail; [2],100
same,"Foxtail, Giant plant response rating",giant foxtail; 125 g ai/ha,30
same,"Foxtail, Giant plant response rating",giant foxtail; 500 g ai/ha,40
same,"Plant response rating, Foxtail, Giant",giant foxtail; [3],70
same,"Plant response rating, Lambsquarters",lambsquarters; [2],100
same,Lambsquarters plant response rating,lambsquarters; 125 g ai/ha,80
same,Lambsquarters plant response rating,lambsquarters; 500 g ai/ha,90
same,"Plant response rating, Lambsquarters",lambsquarters; [3],90
same,"Plant response rating, Morningglory",morningglory; [2],30
same,Morningglory plant response rating,morningglory; 125 g ai/ha,0
same,Morningglory plant response rating,morningglory; 500 g ai/ha,30
same,"Plant response rating, Morningglory",morningglory; [3],0
same,"Plant response rating, Pigweed",pigweed; [2],100
same,Pigweed plant response rating,pigweed; 125 g ai/ha,80
same,Pigweed plant response rating,pigweed; 500 g ai/ha,90
same,"Plant response rating, Pigweed",pigweed; [3],100
same,"Plant response rating, Velvetleaf",velvetleaf; [2],80
same,Velvetleaf plant response rating,velvetleaf; 125 g ai/ha,60
same,Velvetleaf plant response rating,velvetleaf; 500 g ai/ha,60
same,"Plant response rating, Velvetleaf",velvetleaf; [3],30
same,Blackgrass plant response rating,blackgrass; 125 g ai/ha,10
same,Blackgrass plant response rating,blackgrass; 500 g ai/ha,20
same,"Oat, Wild plant response rating",wild oat; 125 g ai/ha,0
same,"Oat, Wild plant response rating",wild oat; 500 g ai/ha,30
same,Rice plant response rating,rice,50
same,"Sedge, Umbrella plant response rating",[1],90
same,Ducksalad plant response rating,ducksalad,80
CCN(CC)C(=O)c1ccnc(NC(=O)c2cc(C(C)(C)C)nn2CC)c1 [Compound 153],"Plant response rating, Barnyardgrass",barnyardgrass; [2],90
same,Barnyardgrass plant response rating,barnyardgrass; 125 g ai/ha,30
same,Barnyardgrass plant response rating,barnyardgrass; 500 g ai/ha,30
same,"Plant response rating, Barnyardgrass",barnyardgrass; [3],60
same,"Plant response rating, Surinam Grass",Surinam grass; [2],70
same,Surinam Grass plant response rating,Surinam grass; 125 g ai/ha,30
same,Surinam Grass plant response rating,Surinam grass; 500 g ai/ha,30
same,"Plant response rating, Surinam Grass",Surinam grass; [3],10
same,"Plant response rating, Cocklebur",cocklebur; [2],0
same,Cocklebur plant response rating,cocklebur; 125 g ai/ha,50
same,Cocklebur plant response rating,cocklebur; 500 g ai/ha,100
same,"Plant response rating, Cocklebur",cocklebur; [3],0
same,"Plant response rating, Corn",corn; [2],20
same,Corn plant response rating,corn; 125 g ai/ha,10
same,Corn plant response rating,corn; 500 g ai/ha,20
same,"Plant response rating, Corn",corn; [3],0
same,"Plant response rating, Crabgrass, Large",large crabgrass; [2],80
same,"Crabgrass, Large plant response rating",large crabgrass; 125 g ai/ha,10
same,"Crabgrass, Large plant response rating",large crabgrass; 500 g ai/ha,20
same,"Plant response rating, Crabgrass, Large",large crabgrass; [3],50
same,"Plant response rating, Foxtail, Giant",giant foxtail; [2],50
same,"Foxtail, Giant plant response rating",giant foxtail; 125 g ai/ha,10
same,"Foxtail, Giant plant response rating",giant foxtail; 500 g ai/ha,20
same,"Plant response rating, Foxtail, Giant",giant foxtail; [3],0
same,"Plant response rating, Lambsquarters",lambsquarters; [2],100
same,Lambsquarters plant response rating,lambsquarters; 125 g ai/ha,80
same,Lambsquarters plant response rating,lambsquarters; 500 g ai/ha,80
same,"Plant response rating, Lambsquarters",lambsquarters; [3],100
same,"Plant response rating, Morningglory",morningglory; [2],10
same,Morningglory plant response rating,morningglory; 125 g ai/ha,10
same,Morningglory plant response rating,morningglory; 500 g ai/ha,70
same,"Plant response rating, Morningglory",morningglory; [3],0
same,"Plant response rating, Pigweed",pigweed; [2],100
same,Pigweed plant response rating,pigweed; 125 g ai/ha,20
same,Pigweed plant response rating,pigweed; 500 g ai/ha,70
same,"Plant response rating, Pigweed",pigweed; [3],100
same,"Plant response rating, Velvetleaf",velvetleaf; [2],100
same,Velvetleaf plant response rating,velvetleaf; 125 g ai/ha,50
same,Velvetleaf plant response rating,velvetleaf; 500 g ai/ha,60
same,"Plant response rating, Velvetleaf",velvetleaf; [3],40
same,Blackgrass plant response rating,blackgrass; 125 g ai/ha,10
same,Blackgrass plant response rating,blackgrass; 500 g ai/ha,10
same,"Oat, Wild plant response rating",wild oat; 125 g ai/ha,20
same,"Oat, Wild plant response rating",wild oat; 500 g ai/ha,50
same,Rice plant response rating,rice,60
same,"Sedge, Umbrella plant response rating",[1],70
same,Ducksalad plant response rating,ducksalad,80
